Experimental data as given in ChEMBL document CHEMBL4610059, “Isolation of triterpenoid saponins from Medicago sativa L. with neuroprotective activities” (2020).

Assays:
Assay type in all cases: functional
Conditions in all cases: read-out: Activity
SH-SY5Y [1] = test: Neuroprotective activity against H2O2-induced cell death in human SH-SY5Y cells assessed as cell viability at 100 uM preincubated for 1 hr followed by H2O2 addition and measured after 4 hrs by CCK8 assay (reference value: 61.14 +/- 1.05%)
SH-SY5Y [2] = test: Neuroprotective activity against H2O2-induced cell death in human SH-SY5Y cells assessed as cell viability at 25 uM preincubated for 1 hr followed by H2O2 addition and measured after 4 hrs by CCK8 assay (reference value: 61.14 +/- 1.05%)
SH-SY5Y [3] = test: Neuroprotective activity against H2O2-induced cell death in human SH-SY5Y cells assessed as cell viability at 50 uM preincubated for 1 hr followed by H2O2 addition and measured after 4 hrs by CCK8 assay (reference value: 61.14 +/- 1.05%)

COC(=O)[C@H]1O[C@@H](O[C@H]2[C@@H](O)C[C@@]3(C)[C@@H](CC[C@]4(C)[C@@H]3CC=C3[C@@H]5CC(C)(C)CC[C@]5(C(=O)O[C@@H]5O[C@H](CO)[C@@H](O)[C@H](O)[C@H]5O)CC[C@]34C)[C@]2(C)CO)[C@H](O)[C@@H](O)[C@@H]1O[C@@H]1OC[C@@H](O)[C@H](O)[C@H]1O
viability at 100 µM (SH-SY5Y [1]): 73%
viability at 25 µM (SH-SY5Y [2]): 62.1%
viability at 50 µM (SH-SY5Y [3]): 64.8%

COC(=O)[C@H]1O[C@@H](O[C@H]2[C@@H](O)C[C@@]3(C)[C@@H](CC[C@]4(C)[C@@H]3CC=C3[C@@H]5CC(C)(C)CC[C@]5(C(=O)O[C@@H]5O[C@H](CO)[C@@H](O)[C@H](O)[C@H]5O)CC[C@]34C)[C@]2(C)CO)[C@H](O[C@@H]2O[C@H](CO)[C@H](O)[C@H](O)[C@H]2O)[C@@H](O)[C@@H]1O
viability at 100 µM (SH-SY5Y [1]): 67.1%
viability at 25 µM (SH-SY5Y [2]): 60.7%
viability at 50 µM (SH-SY5Y [3]): 61.2%

COC(=O)[C@H]1O[C@@H](O[C@H]2CC[C@@]3(C)[C@@H](CC[C@]4(C)[C@@H]3CC=C3[C@@H]5CC(C)(C)CC[C@]5(C(=O)O[C@@H]5O[C@H](CO)[C@@H](O)[C@H](O)[C@H]5O)CC[C@]34C)[C@]2(C)CO)[C@H](O[C@@H]2O[C@H](CO)[C@@H](O)[C@H](O)[C@H]2O[C@@H]2OC[C@H](O)[C@H](O)[C@H]2O)[C@@H](O)[C@@H]1O
viability at 100 µM (SH-SY5Y [1]): 63.1%
viability at 25 µM (SH-SY5Y [2]): 61.9%
viability at 50 µM (SH-SY5Y [3]): 62.9%

CC1(C)CC[C@]2(C(=O)O)CC[C@]3(C)C(=CC[C@@H]4[C@@]5(C)C[C@H](O)[C@H](O)[C@@](C)(C(=O)O)[C@@H]5CC[C@]43C)[C@@H]2C1
viability at 100 µM (SH-SY5Y [1]): 62.2%
viability at 25 µM (SH-SY5Y [2]): 60.1%
viability at 50 µM (SH-SY5Y [3]): 61.1%

Cc1c(C)c2c(c(C)c1O)CCC(C)(C(=O)O)O2 (stereo not given) [TROLOX]
viability at 100 µM (SH-SY5Y [1]): 78.2%
viability at 25 µM (SH-SY5Y [2]): 70.2%
viability at 50 µM (SH-SY5Y [3]): 75.3%
